Laboratory results as given in EP0341104B1, “Substituted flavonoid compounds, their salts, their manufacture and medicines containing these materials” (MERCK PATENT GmbH, priority 1988, dated 1989).

Experiments:
[1] = system: natural killer cell activity; conditions: Wiltrout et al, J. Immunol. 1988; cited from earlier work
[2] = system: ristocetin-induced platelet agglutination; conditions: Rubin et al, Lancet 1987; cited from earlier work
in vivo = conditions: mouse, 400 mg/kg
murine renal cancer = conditions: Wiltrout et al, J. Immunol. 1988; cited from earlier work
[3] = system: tumored cells of the type YAC-1; assay: stimulation of the activity of killer cells (splenic cells of treated mice, chromium 51 release); format: in vivo, Mice BALB/C; conditions: 200 mg/kg intravenously; spleens taken 24 hours after administration; 4 hours incubation with 1 x 10⁴ YAC-1 cells; HBSS controls no measurable activity
Method: The determination of the activity of killer cells was made in accordance with the following. Mice BALB/C were treated intraveneously, either with 0.25 ml of HBSS or with 200 mg/kg of a compound of formula (IV). Twenty four hours after administration of the compound, the spleens of the animals were reduced to a state of suspension. Debris and cellular wastes are eliminated by sedimentation and the red corpuscles are lysed with distilled water. The cellular suspension obtained was then filtered over sterile gauze and washed twice with HBSS.
Different quantities of splenic cells are incubated with 1 x 10⁴ tumored cells of the type YAC-1 stained with chromium 51. The length of incubation was 4 hours at 37°C in a RPMI 1640-type medium supplemented with 5% of FBS, pencillin (100 U/ml) streptomycin (100 µg/ml), L-glutamine (20 mM), sodium pyruvate (1 mM), and nonessential amino acids (0.1 mM) in a buffered medium. The floating bodies are removed and a count effectuated.
The results are expressed in lytic units (UL₁₀): where UL₁₀ is the quantity necessary to effectuate lysis of 1 x 10⁴ target cells. For example, it was discovered that the compound of formula 19, provided 80 UL. The compound of formula 25 provided 60 UL. The compound of formula 42 provided 110 UL.

interferon (IFN) = format: in vivo, Mice BALB/C; conditions: 200 mg/kg intravenously; unit = quantity of IFN in 1 ml of sample reducing viral lysis by 50%; HBSS controls no induction
[4] = after 20 days

Question: For `O=C(O)Cc1cccc2c(=O)cc(-c3ccccc3)oc12` [flavone-8-acetic acid], which “systemic natural killer cell activity” value [1] is on record?
Answer: augments

Question: What about the ristocetin-induced platelet agglutination [2] of the same molecule?
Answer: inhibits

Question: What about the mortality at 480 h (in vivo) of the same molecule?
Answer: 100%

Question: What about the “synergy with interleukin-2 (IL-2) for treatment of murine renal cancer” value (murine renal cancer) of the same molecule?
Answer: synergizes with interleukin-2 (IL-2)

Question: Which results are given for `O=C(O)Cc1cccc2c(=O)cc(-c3ccc(-c4ccccc4)cc3)oc12` [formula 19, PHENYL-4-PHENYL)2-OXO-4-4H-(1)-BENZOPYRAN-8-ACETIC ACID]?
Answer: activity of killer cells in lytic units (UL₁₀) [3]: 80 UL; Interferon activity (interferon (IFN)): 1000 units of IFN

Question: With `O=C(O)Cc1cccc2c(=O)cc(-c3ccc([N+](=O)[O-])cc3)oc12` [formula 25, (NITRO-4-PHENYL)-2-OXO-4-4H-(1)-BENZOPYRAN-8-ACETIC ACID] as the molecule, how does the “activity of killer cells in lytic units (UL₁₀)” value [3] read?
Answer: 60 UL

Question: And the Interferon activity (interferon (IFN))?
Answer: 1000 units of IFN

Question: For `O=C(O)Cc1ccc2c(=O)cc(-c3ccccc3)oc2c1` [formula 29, OXO-4-PHENYL-2-4H-(1) BENZOPYRAN-7-ACETIC ACID], which mortality at 480 h (in vivo) is on record?
Answer: 10%

Question: With `C=C(C(=O)O)c1cccc2c(=O)cc(-c3ccccc3)oc12` [formula 42, (PHENYL-2-OXO-4-4H-(1) BENZOPYRAN-8-YL)-2-ACRYLIC ACID] as the molecule, how does the “activity of killer cells in lytic units (UL₁₀)” value [3] read?
Answer: 110 UL

Question: For `Nc1nc(-c2cccc3c(=O)cc(-c4ccccc4)oc23)cs1` [formula 58, (AMINO-2-THIAZOL-4-YL)-8-PHENYL-2-4H-[1] BENZOPYRANONE-4], which mortality rate [4] is on record?
Answer: no deaths

Question: For `O=C(O)c1cccc2ccc3c(=O)cc(-c4ccccc4)oc3c12` [formula 67, OXO-4-PHENYL-2-4H-NAPHTO[1,2-b]PYRANONE-4], which Interferon activity (interferon (IFN)) is on record?
Answer: 1000 units of IFN
